# According to PMC5805526, “ZB716, a steroidal selective estrogen receptor degrader (SERD), is orally efficacious in blocking tumor growth in mouse xenograft models” (Oncotarget, 2018):
# pEC50, pIC50: −log10 of the molar value.
# Experiments:
# [1] = tested on: ERα; set-up: method as in PMID 27529700; conditions: read-out: binding affinity to ERα, EC50; cited from earlier work
# [2] = tested on: T47D/Y537S breast cancer cells; assay: T47D/Y537S ESR1 mutant cell growth inhibition; type: cell-based; conditions: Homo sapiens, 120 h, 5 days treatment
# Source text: Wild-type ESR1, the Y537S ESR1 mutant were fused to a FLAG tag at their C-termini and cloned into the lentiviral vector pFLRu-FH [30]. Y537S mutation was first introduced into ESR1 using the QuikChange II XL Site-Directed Mutagenesis Kit (Agilent) with an ESR1-encoding plasmid (Accession number NM_000125.1, GeneCopoeia Inc.) as the template. […] To make lentiviral particles, pFLRu-FH vector DNAs (encoding ESR1(wt) and ESR1(Y537S)) were cotransfected with the packaging plasmids into HEK293T cells using Fugene 6 (Roche). At 48 hours post transfection, culture media containing different viruses were added to T47D cells in the presence of polybrene followed by 3-day puromycin selection for stable expression.
# Viable cell numbers were counted with a Z Series Coulter Counter instrument (Beckman-Coulter) following manufacturer's instructions. […] IC50 values were obtained from dose-response curves for all treatments.
# [3] = Tolerability in tumor bearing animals; conditions: all tumor bearing animals, different oral doses
# Method: Four to six weeks old female ovariectomized Nu/Nu mice were purchased from Charles River Laboratories (Wilmington, MA). MCF-7 cells were cultured and harvested in the exponential growth phase using a PBS/EDTA solution. The animals were injected bilaterally in the mammary fat pad (MFP) with 5×10^6 viable cells suspended in 50 μL sterile PBS mixed with 100 μL Matrigel (reduced factor; BD Biosciences, Bed- ford, MA). 17b-Estradiol pellets (0.72 mg, 60 day release; Innovative Research of America, Sarasota, FL) were implanted subcutaneously in the lateral area of the neck using a precision trochar (10 gages) at the time of cell injection. Tumors were allowed to form and at day 15 post cell injection […]. […] Tumor sizes were monitored and recorded every other day for three weeks of treatment duration.
# In a patient-derived xenograft (PDX) mouse model in which the primary tumor donated by a postmenopausal patient was engrafted in NOD scid gamma (NSG™) mice (TM00386 PDX model, Jackson Lab). […] Tumor sizes were monitored and recorded every other day for three weeks of treatment duration.
# [4] = tested on: mutant ER (Y537S ESR1); assay: ER downregulation in T47D/Y537S cells (Wes Simple Western); type: cell-based; conditions: T47D/Y537S
# Source text: (§1) IC50 values were obtained from dose-response curves for all treatments.
# [5] = target: T1, mutant ER (Y537S ESR1) (Homo sapiens, UniProt P03372, Y537S); assay: as above; type: cell-based; conditions: four hours treatment, ERα normalized to actin; read-out: IC50, ER downregulation in T47D/Y537S cells
# T1 construct: added to the C terminus of full-length wild-type and mutant (Y537S) ESR1 by PCR amplification; expressed in transfected cells; host or cells: T47D, lentiviral transduction with pFLRu-FH and puromycin selection
# T1 sequence (P03372 1-595 Y537S): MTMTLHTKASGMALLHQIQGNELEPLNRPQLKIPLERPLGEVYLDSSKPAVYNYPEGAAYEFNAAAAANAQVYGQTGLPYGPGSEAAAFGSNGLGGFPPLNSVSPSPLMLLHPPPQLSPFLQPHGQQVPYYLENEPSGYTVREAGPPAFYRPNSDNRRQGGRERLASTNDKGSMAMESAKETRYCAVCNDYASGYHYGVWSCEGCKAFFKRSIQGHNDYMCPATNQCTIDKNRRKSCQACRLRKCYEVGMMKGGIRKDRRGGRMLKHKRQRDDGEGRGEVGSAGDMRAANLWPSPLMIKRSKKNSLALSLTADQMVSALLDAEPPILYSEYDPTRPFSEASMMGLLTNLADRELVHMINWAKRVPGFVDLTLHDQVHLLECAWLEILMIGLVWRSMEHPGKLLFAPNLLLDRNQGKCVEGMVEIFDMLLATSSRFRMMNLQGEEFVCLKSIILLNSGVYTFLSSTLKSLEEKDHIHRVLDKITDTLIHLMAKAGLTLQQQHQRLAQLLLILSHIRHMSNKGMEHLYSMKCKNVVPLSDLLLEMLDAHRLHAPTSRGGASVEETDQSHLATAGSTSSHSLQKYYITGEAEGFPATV
# Source text: as §1
# [6] = tested on: MCF-7 breast cancer cells; assay: MCF-7 cell growth inhibition; type: cell-based; conditions: Homo sapiens, MCF7, 120 h; 5 days treatment, cell count vs DMSO
# Method: At the end of treatment, surviving cells were counted and normalized to control cells that were treated with vehicle (DMSO) only. (B) IC50 values were obtained by deriving logarithmic curves from the %cell survival vs. treatment dose plot.
# [7] = set-up: method as in PMID 27529700; conditions: mice; cited from earlier work
compound,measurement,setting,value
C[C@]12CC[C@@H]3c4ccc(B(O)O)cc4C[C@@H](CCCCCCCCC[S+]([O-])CCCC(F)(F)C(F)(F)F)[C@H]3[C@@H]1CC[C@@H]2O (some centres unmarked) [ZB716],pEC50,[1],8.39
same,pIC50,[2],7.61
same,animal body weights,[3],no significant loss or increase of animal body weights
same,toxicities in the entire course of treatment,[3],no apparent toxicities were observed
same,drug concentration for 50% downregulation of mutant ER relative to wild type,[4],about 10 times
same,DC50,[5],24 nM
same,pIC50,[6],8.49
same,plasma peak concentration after single-dose oral gavage relative to same-dose fulvestrant s.c.,[7],over 10 times
